Source: patent publication US20020137929A1, “1 - (3-heterocyclylphenyl) isothiourea, -isourea, -guanidine and -amidine herbicidal agents” (Intellectual Property Department, BASF Aktiengesellschaft, priority 1998, published 2002)

What was measured:
ABUTH (Velvetleaf) = experiment: Postemergence herbicidal evaluation; assay type: in vivo, Abutilon theophrasti; details: for ABUTH herbicidal rating: postemergence
How it was run: (§1)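 Each compound, dispersed in an acetone/water mix (50/50) carrying 0.5% TWEEN 20, is nozzle-sprayed at 40 psi on approximately two-week-old seedlings at about 0.0156–0.500 kg/ha. Plants are assessed 4–5 weeks afterward on a 0–9 scale relative to control; duplicate tests are averaged.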

AMBEL (Ragweed, Common) [1] = experiment: Postemergence herbicidal evaluation; assay type: in vivo, Ambrosia artemisifolia; details: for AMBEL herbicidal rating: postemergence
How it was run: as §1

[2] = test system: CHEAL (Lambsquarters, Common); experiment: Postemergence herbicidal evaluation; assay type: in vivo, Chenopodium album; details: for CHEAL herbicidal rating: postemergence
How it was run: as §1

ECHCG (Barnyardgrass) = experiment: Postemergence herbicidal evaluation; assay type: in vivo, Echinochloa crus-galli; details: for ECHCG herbicidal rating: postemergence
How it was run: as §1

[3] = test system: GLXMAW (Soybean, Williams); experiment: Postemergence herbicidal evaluation; assay type: in vivo, Glycine max, (L.) Merr. cv Williams; details: for GLXMAW herbicidal rating: postemergence
How it was run: as §1

ORYSAT (Rice, Tebonnet) = experiment: Postemergence herbicidal evaluation; assay type: in vivo, Oryza sativa, (L.) Tebonnet; details: for ORYSAT herbicidal rating: postemergence
How it was run: as §1

ZEAMX (Corn, Field) = experiment: Postemergence herbicidal evaluation; assay type: in vivo, Zea mays; details: for ZEAMX herbicidal rating: postemergence
How it was run: as §1

AMBEL (Ragweed, Common) [4] = experiment: Preemergence herbicidal evaluation; assay type: in vivo, Ambrosia artemisifolia; details: rated 4-5 weeks after treatment
How it was run: (§2)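 Greenhouse preemergence test: seed-soil mix sown on ~1 inch soil; aqueous acetone spray at equivalent of ~0.0156–0.500 kg/ha; greenhouse-held and watered; scored 0–9 visually at 4–5 weeks.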

CASOB (Sicklepod) = experiment: Preemergence herbicidal evaluation; assay type: in vivo, Cassia obtusifolia; details: rated 4-5 weeks after treatment
How it was run: as §2

[5] = test system: CHEAL (Lambsquarters, Common); experiment: Preemergence herbicidal evaluation; assay type: in vivo, Chenopodium album; details: rated 4-5 weeks after treatment
How it was run: as §2

GALAP (Galium) = experiment: Preemergence herbicidal evaluation; assay type: in vivo, Galium aparine; details: rated 4-5 weeks after treatment
How it was run: as §2

CYPSE (Flatsedge) [6] = experiment: Preemergence weed control under flooded paddy conditions; assay type: in vivo, Cyperus serotinus; details: rated 3-4 weeks after treatment
How it was run: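 Seeds or propagules sown in silt loam kept flooded 1.5-3 cm; compounds in 50/50 acetone/water pipetted into flood water at about 0.0313 to 0.500 kg/ha. Greenhouse; visual 0-9 rating versus untreated control 3-4 weeks after treatment.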

CYPIR (Rice Flatsedge) = experiment: Postemergence weed control under flooded paddy conditions; assay type: in vivo, Cyperus iria; details: postemergence weeds, 3-4 weeks after treatment
How it was run: (§3)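 With weeds 3 to 5 cm tall and rice at the 1.5 to 2.5 leaf stage, containers were flooded and water held 1.5 to 3 cm above soil. Compounds in 50/50 v/v aqueous/acetone went into the flood water at about 0.0313 to 0.500 kg/ha a.i. Effects were visually rated 0–9 against controls after three to four weeks in the greenhouse.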

CYPSE (Flatsedge) [7] = experiment: as above; assay type: in vivo, Cyperus serotinus; details: postemergence weeds, 3-4 weeks after treatment
How it was run: as §3

Cn1c(C(F)(F)F)cc(=O)n(-c2cc(N=C3NC(=O)CS3)c(Cl)cc2F)c1=O [Compound 39, 3-{4-Chloro-2-fluoro-5-[(4-oxo-2-thiazolidinylidene)amino]phenyl}-1-methyl-6-(trifluoromethyl)-2,4(1H,3H)-pyrimidinedione]
Postemergence herbicidal rating ABUTH (ABUTH (Velvetleaf); Rate 0.0158 kg/ha): 0.0
Postemergence herbicidal rating ABUTH (ABUTH (Velvetleaf); Rate 0.0315 kg/ha): 9.0
Postemergence herbicidal rating ABUTH (ABUTH (Velvetleaf); Rate 0.0630 kg/ha): 9.0
Postemergence herbicidal rating AMBEL (AMBEL (Ragweed, Common) [1]; Rate 0.0158 kg/ha): 0.0
Postemergence herbicidal rating AMBEL (AMBEL (Ragweed, Common) [1]; Rate 0.0315 kg/ha): 3.0
Postemergence herbicidal rating AMBEL (AMBEL (Ragweed, Common) [1]; Rate 0.0630 kg/ha): 7.0
Postemergence herbicidal rating CHEAL ([2]; Rate 0.0158 kg/ha): 1.0
Postemergence herbicidal rating CHEAL ([2]; Rate 0.0315 kg/ha): 1.0
Postemergence herbicidal rating CHEAL ([2]; Rate 0.0630 kg/ha): 1.0
Postemergence herbicidal rating ECHCG (ECHCG (Barnyardgrass); Rate 0.0158 kg/ha): 0.0
Postemergence herbicidal rating ECHCG (ECHCG (Barnyardgrass); Rate 0.0315 kg/ha): 0.0
Postemergence herbicidal rating ECHCG (ECHCG (Barnyardgrass); Rate 0.0630 kg/ha): 0.0
Postemergence herbicidal rating GLXMAW ([3]; Rate 0.0158 kg/ha): 4.5
Postemergence herbicidal rating GLXMAW ([3]; Rate 0.0315 kg/ha): 5.0
Postemergence herbicidal rating GLXMAW ([3]; Rate 0.0630 kg/ha): 5.0
Postemergence herbicidal rating ORYSAT (ORYSAT (Rice, Tebonnet); Rate 0.0158 kg/ha): 1.5
Postemergence herbicidal rating ORYSAT (ORYSAT (Rice, Tebonnet); Rate 0.0315 kg/ha): 1.5
Postemergence herbicidal rating ORYSAT (ORYSAT (Rice, Tebonnet); Rate 0.0630 kg/ha): 2.0
Postemergence herbicidal rating ZEAMX (ZEAMX (Corn, Field); Rate 0.0158 kg/ha): 3.0
Postemergence herbicidal rating ZEAMX (ZEAMX (Corn, Field); Rate 0.0315 kg/ha): 3.0
Postemergence herbicidal rating ZEAMX (ZEAMX (Corn, Field); Rate 0.0630 kg/ha): 3.0
Preemergence herbicidal rating AMBEL (AMBEL (Ragweed, Common) [4]; rate 0.0156 kg/ha): 0.0
Preemergence herbicidal rating AMBEL (AMBEL (Ragweed, Common) [4]; rate 0.0313 kg/ha): 0.0
Preemergence herbicidal rating AMBEL (AMBEL (Ragweed, Common) [4]; rate 0.0625 kg/ha): 0.0
Preemergence herbicidal rating AMBEL (AMBEL (Ragweed, Common) [4]; rate 0.1250 kg/ha): 6.0
Preemergence herbicidal rating AMBEL (AMBEL (Ragweed, Common) [4]; rate 0.2500 kg/ha): 7.0
Preemergence herbicidal rating CASOB (CASOB (Sicklepod); rate 0.0313 kg/ha): 0.0
Preemergence herbicidal rating CASOB (CASOB (Sicklepod); rate 0.0625 kg/ha): 0.0
Preemergence herbicidal rating CASOB (CASOB (Sicklepod); rate 0.1250 kg/ha): 2.0
Preemergence herbicidal rating CASOB (CASOB (Sicklepod); rate 0.2500 kg/ha): 1.0
Preemergence herbicidal rating CHEAL ([5]; rate 0.0156 kg/ha): 1.0
Preemergence herbicidal rating CHEAL ([5]; rate 0.0313 kg/ha): 0.0
Preemergence herbicidal rating CHEAL ([5]; rate 0.0625 kg/ha): 7.0
Preemergence herbicidal rating CHEAL ([5]; rate 0.1250 kg/ha): 7.0
Preemergence herbicidal rating CHEAL ([5]; rate 0.2500 kg/ha): 9.0
Preemergence herbicidal rating GALAP (GALAP (Galium); rate 0.0156 kg/ha): 0.0
Preemergence herbicidal rating GALAP (GALAP (Galium); rate 0.0313 kg/ha): 0.0
Preemergence herbicidal rating GALAP (GALAP (Galium); rate 0.0625 kg/ha): 0.0
Preemergence herbicidal rating GALAP (GALAP (Galium); rate 0.1250 kg/ha): 6.0
Preemergence herbicidal rating GALAP (GALAP (Galium); rate 0.2500 kg/ha): 9.0
Herbicidal rating CYPSE (CYPSE (Flatsedge) [6]; 0.0313 kg/ha): 0.0
Herbicidal rating CYPSE (CYPSE (Flatsedge) [6]; 0.0625 kg/ha): 0.0
Herbicidal rating CYPSE (CYPSE (Flatsedge) [6]; 0.1250 kg/ha): 0.0
Herbicidal rating CYPSE (CYPSE (Flatsedge) [6]; 0.2500 kg/ha): 0.0
Herbicidal rating CYPIR (CYPIR (Rice Flatsedge); rate 0.0313 kg/ha): 0.0
Herbicidal rating CYPIR (CYPIR (Rice Flatsedge); rate 0.0625 kg/ha): 0.0
Herbicidal rating CYPIR (CYPIR (Rice Flatsedge); rate 0.1250 kg/ha): 0.0
Herbicidal rating CYPIR (CYPIR (Rice Flatsedge); rate 0.2500 kg/ha): 0.0
Herbicidal rating CYPSE (CYPSE (Flatsedge) [7]; rate 0.0313 kg/ha): 0.0
Herbicidal rating CYPSE (CYPSE (Flatsedge) [7]; rate 0.0625 kg/ha): 0.0
Herbicidal rating CYPSE (CYPSE (Flatsedge) [7]; rate 0.1250 kg/ha): 0.0
Herbicidal rating CYPSE (CYPSE (Flatsedge) [7]; rate 0.2500 kg/ha): 0.0

CN1C(=O)CS/C1=N/c1cc(-n2c(=O)cc(C(F)(F)F)n(C)c2=O)c(F)cc1Cl [Compound 7]
ABUTH herbicidal rating (ABUTH (Velvetleaf); rate 0.0157 kg/ha): 9.0
ABUTH herbicidal rating (ABUTH (Velvetleaf); rate 0.0313 kg/ha): 9.0
ABUTH herbicidal rating (ABUTH (Velvetleaf); rate 0.0625 kg/ha): 9.0
ABUTH herbicidal rating (ABUTH (Velvetleaf); rate 0.1250 kg/ha): 9.0
AMBEL herbicidal rating (AMBEL (Ragweed, Common) [1]; rate 0.0157 kg/ha): 5.0
AMBEL herbicidal rating (AMBEL (Ragweed, Common) [1]; rate 0.0313 kg/ha): 5.0
AMBEL herbicidal rating (AMBEL (Ragweed, Common) [1]; rate 0.0625 kg/ha): 7.0
AMBEL herbicidal rating (AMBEL (Ragweed, Common) [1]; rate 0.1250 kg/ha): 9.0
CHEAL herbicidal rating ([2]; rate 0.0157 kg/ha): 0.0
CHEAL herbicidal rating ([2]; rate 0.0313 kg/ha): 5.0
CHEAL herbicidal rating ([2]; rate 0.0625 kg/ha): 6.0
CHEAL herbicidal rating ([2]; rate 0.1250 kg/ha): 9.0
ECHCG herbicidal rating (ECHCG (Barnyardgrass); rate 0.0157 kg/ha): 2.0
ECHCG herbicidal rating (ECHCG (Barnyardgrass); rate 0.0313 kg/ha): 0.0
ECHCG herbicidal rating (ECHCG (Barnyardgrass); rate 0.0625 kg/ha): 3.0
ECHCG herbicidal rating (ECHCG (Barnyardgrass); rate 0.1250 kg/ha): 4.0
GLXMAW herbicidal rating ([3]; rate 0.0157 kg/ha): 5.0
GLXMAW herbicidal rating ([3]; rate 0.0313 kg/ha): 6.5
GLXMAW herbicidal rating ([3]; rate 0.0625 kg/ha): 7.5
GLXMAW herbicidal rating ([3]; rate 0.1250 kg/ha): 7.5
ORYSAT herbicidal rating (ORYSAT (Rice, Tebonnet); rate 0.0157 kg/ha): 4.5
ORYSAT herbicidal rating (ORYSAT (Rice, Tebonnet); rate 0.0313 kg/ha): 4.0
ORYSAT herbicidal rating (ORYSAT (Rice, Tebonnet); rate 0.0625 kg/ha): 4.5
ORYSAT herbicidal rating (ORYSAT (Rice, Tebonnet); rate 0.1250 kg/ha): 6.5
ZEAMX herbicidal rating (ZEAMX (Corn, Field); rate 0.0157 kg/ha): 5.0
ZEAMX herbicidal rating (ZEAMX (Corn, Field); rate 0.0313 kg/ha): 6.0
ZEAMX herbicidal rating (ZEAMX (Corn, Field); rate 0.0625 kg/ha): 7.0
ZEAMX herbicidal rating (ZEAMX (Corn, Field); rate 0.1250 kg/ha): 7.0
AMBEL preemergence herbicidal rating (AMBEL (Ragweed, Common) [4]; rate 0.0157 kg/ha): 5.0
AMBEL preemergence herbicidal rating (AMBEL (Ragweed, Common) [4]; rate 0.0313 kg/ha): 8.5
AMBEL preemergence herbicidal rating (AMBEL (Ragweed, Common) [4]; rate 0.0625 kg/ha): 9.0
AMBEL preemergence herbicidal rating (AMBEL (Ragweed, Common) [4]; rate 0.1250 kg/ha): 9.0
AMBEL preemergence herbicidal rating (AMBEL (Ragweed, Common) [4]; rate 0.2500 kg/ha): 9.0
CASOB preemergence herbicidal rating (CASOB (Sicklepod); rate 0.0157 kg/ha): 9.0
CASOB preemergence herbicidal rating (CASOB (Sicklepod); rate 0.0313 kg/ha): 9.0
CASOB preemergence herbicidal rating (CASOB (Sicklepod); rate 0.0625 kg/ha): 9.0
CASOB preemergence herbicidal rating (CASOB (Sicklepod); rate 0.1250 kg/ha): 8.0
CASOB preemergence herbicidal rating (CASOB (Sicklepod); rate 0.2500 kg/ha): 9.0
CHEAL preemergence herbicidal rating ([5]; rate 0.0157 kg/ha): 9.0
CHEAL preemergence herbicidal rating ([5]; rate 0.0313 kg/ha): 9.0
CHEAL preemergence herbicidal rating ([5]; rate 0.0625 kg/ha): 9.0
CHEAL preemergence herbicidal rating ([5]; rate 0.1250 kg/ha): 9.0
CHEAL preemergence herbicidal rating ([5]; rate 0.2500 kg/ha): 9.0
GALAP preemergence herbicidal rating (GALAP (Galium); rate 0.0157 kg/ha): 4.0
GALAP preemergence herbicidal rating (GALAP (Galium); rate 0.0313 kg/ha): 7.5
GALAP preemergence herbicidal rating (GALAP (Galium); rate 0.0625 kg/ha): 9.0
GALAP preemergence herbicidal rating (GALAP (Galium); rate 0.1250 kg/ha): 9.0
GALAP preemergence herbicidal rating (GALAP (Galium); rate 0.2500 kg/ha): 9.0
Herbicidal rating CYPSE (CYPSE (Flatsedge) [6]; 0.0313 kg/ha): 4.0
Herbicidal rating CYPSE (CYPSE (Flatsedge) [6]; 0.0625 kg/ha): 7.0
Herbicidal rating CYPSE (CYPSE (Flatsedge) [6]; 0.1250 kg/ha): 7.0
Herbicidal rating CYPSE (CYPSE (Flatsedge) [6]; 0.2500 kg/ha): 9.0
Herbicidal rating CYPIR (CYPIR (Rice Flatsedge); rate 0.0313 kg/ha): 8.5
Herbicidal rating CYPIR (CYPIR (Rice Flatsedge); rate 0.0625 kg/ha): 9.0
Herbicidal rating CYPIR (CYPIR (Rice Flatsedge); rate 0.1250 kg/ha): 9.0
Herbicidal rating CYPIR (CYPIR (Rice Flatsedge); rate 0.2500 kg/ha): 9.0
Herbicidal rating CYPSE (CYPSE (Flatsedge) [7]; rate 0.0313 kg/ha): 3.0
Herbicidal rating CYPSE (CYPSE (Flatsedge) [7]; rate 0.0625 kg/ha): 7.0
Herbicidal rating CYPSE (CYPSE (Flatsedge) [7]; rate 0.1250 kg/ha): 7.5
Herbicidal rating CYPSE (CYPSE (Flatsedge) [7]; rate 0.2500 kg/ha): 8.0
